Test results taken from BigSolDB 2.1.

O=C(Nc1ccccc1)c1ccccc1O
solubility (mole fraction)
Settings	283.15 K	288.15 K	293.15 K	298.15 K	303.15 K	308.15 K	313.15 K	318.15 K	323.15 K
in acetonitrile	0.0129	0.0153	0.0181	0.0217	0.0258	0.0307	0.0359	0.0423	0.0485
in ethanol	0.0185	0.0207	0.0235	0.0273	0.0322	0.0366	0.0425	0.0487	0.0572
in ethyl acetate	0.0344	0.039	0.0432	0.0486	0.0554	0.0635	0.0709	0.0808	0.0892
in ethyl formate	0.0195	0.0219	0.0248	0.0293	0.0334	0.041	0.0488	0.0585	0.0681
in isopropanol	0.0169	0.0199	0.0225	0.0265	0.0315	0.036	0.041	0.0473	0.053
in isopropyl acetate	0.0281	0.031	0.0352	0.0389	0.0439	0.0502	0.0567	0.0638	0.0709
in methyl acetate	0.0366	0.0408	0.0443	0.05	0.0568	0.0658	0.0766	0.0879	0.101
in n-butanol	0.013	0.0155	0.0178	0.021	0.0247	0.0292	0.0346	0.0403	0.0467
in n-butyl acetate	0.028	0.0311	0.0349	0.0388	0.0435	0.049	0.0545	0.061	0.0686
in n-pentanol	0.014	0.0157	0.0181	0.0206	0.0238	0.0281	0.0338	0.0396	0.0459
in n-propanol	0.0134	0.0168	0.0199	0.0229	0.0266	0.0314	0.0363	0.0418	0.0479
in n-propyl acetate	0.0303	0.0347	0.0378	0.0435	0.0483	0.0542	0.0616	0.0703	0.0796
